Measured values taken from publication PMC6496074, “The Evolution of Azole Resistance in Candida albicans Sterol 14α-Demethylase (CYP51) through Incremental Amino Acid Substitutions” (Antimicrobial Agents and Chemotherapy, 2019).
Values after ≈ are worked out from the molar mass of the structure shown.

Experiments:
[1] = test system: C. albicans SC5314 strain with CaCYP51 substitution G450E; experiment: CLSI broth microdilution MIC; assay type: cell-based; conditions: Candida albicans, RPMI 1640, 24 h, 35°C, 50% reduction in growth
Source text: (§1) Strains expressing seven single mutations (Y132F, K143R, F145L, S405F, G448E, G450E, G464S) and three double mutations (Y132F+K143R, Y132F+F145L, D278N+G464S) were selected from a previous study ([36]). Two additional strains expressing the Y132H and D278N CYP51 gene mutations were created utilizing the SAT1/FLP cassette described previously ([44]). […] Successful transformants were screened on yeast-peptone-dextrose agar plates containing nourseothricin and confirmed via Southern hybridization. Genomic DNA from nourseothricin-screened transformants was digested with the HindIII restriction enzyme, and the resulting DNA digests were loaded on 1% agarose gels containing ethidium bromide. Digested samples were visualized briefly under UV light after approximately 2 h of electrophoresis (120 V) to confirm appropriate band separation. Lanes containing digested DNA in the gel were transferred onto a nitrocellulose membrane via vacuum suction, and DNA was cross-linked to the membrane through UV exposure. PCR amplification of the genomic DNA from parent isolate SC5314 using primers ERG11_Probe_F (5′-[…]-3′) and ERG11_Probe_R (5′-[…]-3′) generated a 254-bp product, used as a probe for the ERG11 gene locus. The probe was labeled and prepared using an Amersham AlkPhos direct labeling and detection system (GE Life Sciences) and hybridized to the membrane through overnight incubation at 55°C. Bands containing the hybridized, alkaline phosphatase-labeled probe corresponding to either wild-type ERG11 alleles (2,678 bp) or successfully replaced alleles with the SAT1/FLP cassette included (4,318 bp) or recycled (3,119 bp) were visualized with the CDP-Star chemiluminescent detection reagent. To confirm the sequence of the replaced ERG11 allele, a DNA fragment containing the ERG11 ORF and approximately 435 bp upstream of the start codon and 229 bp downstream of the ERG11 stop codon was PCR amplified using primers CaERG11_A_(ApaI) (5′-[…]-3′) and CaERG11_E_(XhoI) (5′-[…]-3′). The resulting DNA fragment was purified and Sanger sequenced on an ABI model 3130XL genetic analyzer with the following sequencing primers: CaERG11SeqA (5′-[…]-3′), CaERG11SeqB (5′-[…]-3′), CaERG11SeqC (5′-[…]-3′), CaERG11SeqD (5′-[…]-3′), CaERG11SeqE (5′-[…]-3′), and CaERG11SeqF (5′-[…]-3′).
(§2) Azole MICs were determined using the broth microdilution method described by the Clinical Laboratory and Standards Institute ([45], [46]). […] Measurements were read visually at 24 h after incubation at 35°C for a 50% reduction in growth from that in the drug-free control wells. MIC measurements were performed in duplicate, and the MIC was reported as the higher of two values for all strains tested. In cases where the duplicate MIC values were not identical, the higher of the two MIC values is reported. […] Additionally, no MICs differed by more than 2 dilutions for a given strain and drug.

[2] = test system: C. albicans SC5314 strain with CaCYP51 substitution G464S; experiment: CLSI broth microdilution MIC; assay type: cell-based; conditions: Candida albicans, RPMI 1640, 24 h, 35°C, 50% reduction in growth
Source text: as §1, §2

[3] = test system: C. albicans SC5314 strain with CaCYP51 substitution Y132F; experiment: CLSI broth microdilution MIC; assay type: cell-based; conditions: Candida albicans, RPMI 1640, 24 h, 35°C, 50% reduction in growth
Source text: as §1, §2

[4] = test system: C. albicans SC5314 strain with CaCYP51 substitution Y132H; experiment: CLSI broth microdilution MIC; assay type: cell-based; conditions: Candida albicans, RPMI 1640, 24 h, 35°C, 50% reduction in growth
Source text: as §1, §2

[5] = test system: C. albicans SC5314 strain with CaCYP51 substitution D278N; experiment: CLSI broth microdilution MIC; assay type: cell-based; conditions: Candida albicans, RPMI 1640, 24 h, 35°C, 50% reduction in growth
Source text: as §1, §2

[6] = test system: fluconazole-susceptible parent strain SC5314; experiment: CLSI broth microdilution MIC; assay type: cell-based; conditions: Candida albicans; parent strain SC5314, no substitution; RPMI 1640, 24 h, 35°C, 50% reduction in growth
Source text: as §1, §2

[7] = test system: C. albicans SC5314 strain with CaCYP51 substitution F145L; experiment: CLSI broth microdilution MIC; assay type: cell-based; conditions: Candida albicans, RPMI 1640, 24 h, 35°C, 50% reduction in growth
Source text: as §1, §2

[8] = test system: C. albicans SC5314 strain with CaCYP51 substitution Y132F+F145L; experiment: CLSI broth microdilution MIC; assay type: cell-based; conditions: Candida albicans, RPMI 1640, 24 h, 35°C, 50% reduction in growth
Source text: as §1, §2

[9] = test system: C. albicans SC5314 strain with CaCYP51 substitution K143R; experiment: CLSI broth microdilution MIC; assay type: cell-based; conditions: Candida albicans, RPMI 1640, 24 h, 35°C, 50% reduction in growth
Source text: as §1, §2

[10] = test system: C. albicans SC5314 strain with CaCYP51 substitution Y132F+K143R; experiment: CLSI broth microdilution MIC; assay type: cell-based; conditions: Candida albicans, RPMI 1640, 24 h, 35°C, 50% reduction in growth
Source text: as §1, §2

[11] = test system: C. albicans SC5314 strain with CaCYP51 substitution D278N+G464S; experiment: CLSI broth microdilution MIC; assay type: cell-based, Candida albicans; conditions: for MIC: Candida albicans, SC5314, RPMI 1640, 24 h, 35°C, 50% reduction in growth
Source text: as §1, §2

CaCYP51 K143R = target: T1, CaCYP51 K143R (Candida albicans, UniProt P10613, K143R); experiment: CYP51 reconstitution assay; assay type: biochemical; conditions: for remaining activity at 4 µM: 0.25 h, 4 μM triazole, % of activity without triazole, read-out: Residual CYP51 activity (%) ± SD; for IC50: mean ± SD, duplicate
T1 construct: made in house; host or cells: E. coli DH5α (pCWori+)
Protocol: Azole antifungal agents were added in 2.5 μl dimethyl sulfoxide, followed by 10 min of incubation at 37°C prior to assay initiation with 4 mM β-NADPH-Na4. The samples were then shaken for 15 min at 37°C. Sterol metabolites were recovered by extraction with ethyl acetate, followed by derivatization with 0.1 ml N,O-bis(trimethylsilyl)trifluoroacetamide (BSTFA)–trimethylchlorosilane (TMCS) (99:1) and 0.3 ml anhydrous pyridine (2 h at 80°C), prior to analysis by gas chromatography-mass spectrometry (GC-MS) ([52]). IC50 determinations were performed in duplicate.

CaCYP51 Y132H+K143R = target: T2, CaCYP51 Y132H+K143R (Candida albicans, UniProt P10613, K143R/Y132H); experiment: Azole ligand binding (type II difference spectra); conditions: for Kd: 4 μM protein, 22°C, ± standard deviation, triplicate, read-out: dissociation constant (Kd)
T2 construct: made in house; host or cells: E. coli DH5α (pCWori+)
Protocol: Studies of azole antifungal binding to 4 μM CaCYP51 proteins were performed as previously described ([53]) using quartz split cuvettes with a 4.5-mm light path. […] Azole antifungals were progressively titrated against the CaCYP51 proteins in 0.1 M Tris-HCl (pH 8.1) and 25% glycerol at 22°C, with equivalent volumes of dimethyl sulfoxide also being added to the CYP51-containing compartment of the reference cuvette. The absorbance difference spectra between 500 and 350 nm were determined after each incremental addition of azole, with binding saturation curves constructed from the change in the peak and trough absorbance (ΔApeak-trough) against the azole concentration. The dissociation constant (Kd) of the enzyme-azole complex for each azole was determined by nonlinear regression (Levenberg-Marquardt algorithm) using a rearrangement of the Morrison equation for tight ligand binding ([54], [55]). Tight binding is normally observed when the Kd for a ligand is similar to or lower than the concentration of the enzyme present ([56]). Where ligand binding was weak, the Michaelis-Menten equation was used to fit the data. Each binding determination was performed in triplicate. The chemical structures of the azole antifungals used in this study are shown in Fig. S5 in the supplemental material.

T1 sequence (P10613 whole entry, looked up, stated change not applied): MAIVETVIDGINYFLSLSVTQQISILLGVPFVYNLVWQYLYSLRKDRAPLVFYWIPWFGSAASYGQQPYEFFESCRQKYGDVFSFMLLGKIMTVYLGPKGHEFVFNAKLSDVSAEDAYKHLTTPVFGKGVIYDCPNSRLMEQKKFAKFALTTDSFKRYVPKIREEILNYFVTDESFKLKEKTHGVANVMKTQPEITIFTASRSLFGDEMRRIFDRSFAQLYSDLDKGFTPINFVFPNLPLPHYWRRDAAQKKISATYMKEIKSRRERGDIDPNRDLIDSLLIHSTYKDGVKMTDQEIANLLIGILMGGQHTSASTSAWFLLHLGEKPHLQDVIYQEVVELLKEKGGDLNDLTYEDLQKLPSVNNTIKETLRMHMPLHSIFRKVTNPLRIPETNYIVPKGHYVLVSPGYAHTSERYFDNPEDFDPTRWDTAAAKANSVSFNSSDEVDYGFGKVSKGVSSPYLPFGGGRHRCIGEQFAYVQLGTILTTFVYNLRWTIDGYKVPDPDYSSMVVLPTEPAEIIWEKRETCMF
T2 sequence (P10613 whole entry, looked up, stated change not applied): as above

Compound | MIC [1] [µg/mL] | MIC [2] [µg/mL] | MIC [3] [µg/mL] | MIC [4] [µg/mL] | MIC [5] [µg/mL] | MIC [6] [µg/mL] | MIC [7] [µg/mL] | MIC [8] [µg/mL] | MIC [9] [µg/mL] | MIC [10] [µg/mL] | MIC [11] [µg/mL] | remaining activity at 4 µM (CaCYP51 K143R) [%] | IC50 (CaCYP51 K143R) [nM] | Kd (CaCYP51 Y132H+K143R) [nM] | fold increase in MIC over SC5314 [11] | Kd, fold larger than wild-type enzyme (CaCYP51 Y132H+K143R) [fold]
CC[C@@H]([C@H](C)O)n1ncn(-c2ccc(N3CCN(c4ccc(OC[C@@H]5CO[C@@](Cn6cncn6)(c6ccc(F)cc6F)C5)cc4)CC3)cc2)c1=O [Posaconazole, posaconazole] | ≤ 0.03 | ≤ 0.03 | ≤ 0.03 | ≤ 0.03 | ≤ 0.03 | ≤ 0.03 | ≤ 0.03 | ≤ 0.03 | ≤ 0.03 | ≤ 0.03 | ≤ 0.03 | 13.09 ± 0.02 | 789 ± 3 | 162 ± 59 | – | –
OC(Cn1cncn1)(Cn1cncn1)c1ccc(F)cc1F [Fluconazole, fluconazole] | 16 (≈ 52.2 µM) | 8 (≈ 26.1 µM) | 8 (≈ 26.1 µM) | 2 (≈ 6.53 µM) | – | 1 (≈ 3.27 µM) | 4 (≈ 13.1 µM) | 32 (≈ 104 µM) | 16 (≈ 52.2 µM) | 32 (≈ 104 µM) | 8 (≈ 26.1 µM) | 28.1 ± 2.04 | 1100 ± 313 | 18100 | at least 2 fold | 362
C[C@@H](c1ncncc1F)[C@](O)(Cn1cncn1)c1ccc(F)cc1F [Voriconazole, voriconazole] | 0.5 (≈ 1.43 µM) | 0.25 (≈ 0.716 µM) | 0.5 (≈ 1.43 µM) | 0.25 (≈ 0.716 µM) | ≤ 0.03 | ≤ 0.03 | 0.5 (≈ 1.43 µM) | 1 (≈ 2.86 µM) | 0.5 (≈ 1.43 µM) | 1 (≈ 2.86 µM) | 0.25 (≈ 0.716 µM) | 3.12 ± 0.27 | – | – | – | –
CCC(C)n1ncn(-c2ccc(N3CCN(c4ccc(OCC5COC(Cn6cncn6)(c6ccc(Cl)cc6Cl)O5)cc4)CC3)cc2)c1=O (stereo not drawn) [Itraconazole, itraconazole] | 0.25 (≈ 0.354 µM) | 0.25 (≈ 0.354 µM) | 0.25 (≈ 0.354 µM) | 0.25 (≈ 0.354 µM) | 0.125 (≈ 0.177 µM) | 0.06 (≈ 0.085 µM) | 0.25 (≈ 0.354 µM) | 0.25 (≈ 0.354 µM) | 0.5 (≈ 0.709 µM) | 0.25 (≈ 0.354 µM) | 0.25 (≈ 0.354 µM) | – | 450 ± 16 | 387 ± 117 | – | –
